Measurements reported in patent US6410585B1, “Inhibitors of protein tyrosine phosphatase” (priority 1997, dated 2002).
“And” between values parts separate entries of the source, which are not always exact repeats. Identical values can stand only once.

Experiments:
rat PTP1 = target: T1, rat PTP1 (Rattus norvegicus, UniProt P20417); experiment: PTP1 assay, pNPP hydrolysis (rate of change in A405); type: biochemical; settings: for inhibition at 1 µM: Conc 1 uM; for inhibition at 1 µM / inhibition at 10 µM / inhibition at 100 µM: pNPP hydrolysis, Table 2, read-out: PTP1 Inhib PTP1N. % Inhib; for inhibition at 10 µM: Conc 10 uM; for inhibition at 100 µM: Conc 100 uM; for Ki: calculated from IC50-values obtained from a dose-response curve using the inhibition assay
T1 construct: a C-terminal truncation of rat PTP1 (amino acid residues 1-322); GST (N, cleaved yes); made in house; host or cells: E. coli strain TG-1 (pGEX-2T)
T1 sequence (P20417 1-322): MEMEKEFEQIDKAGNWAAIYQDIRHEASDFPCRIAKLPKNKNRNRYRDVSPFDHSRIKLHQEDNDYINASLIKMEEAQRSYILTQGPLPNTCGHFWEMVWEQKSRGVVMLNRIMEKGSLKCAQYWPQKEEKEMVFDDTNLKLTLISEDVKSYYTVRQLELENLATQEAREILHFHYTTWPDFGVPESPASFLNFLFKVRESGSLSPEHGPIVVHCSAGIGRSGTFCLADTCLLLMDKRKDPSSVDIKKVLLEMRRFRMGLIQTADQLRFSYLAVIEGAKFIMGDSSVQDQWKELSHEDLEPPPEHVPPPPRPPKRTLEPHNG
Outline: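 Thrombin-cleaved rat PTP1 residues 1-322 (35 ng/ml) with 1 mM pNPP in 50 mM Hepes pH 7.2, NaCl, EDTA, DTT, BSA at room temperature. A405 rate followed 60 min. Compounds added as 10 mM solutions; percent inhibition relative to plate DMSO controls, 1 mM orthovanadate as full-inhibition control.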

human PTP1B = target: T2, human PTP1B (Homo sapiens, UniProt P18031); experiment: PTP1B assay, pNPP hydrolysis, assayed exactly as for PTP1; type: biochemical; settings: for inhibition at 1 µM: Conc 1 uM; for inhibition at 1 µM / inhibition at 10 µM / inhibition at 100 µM: Table 2, read-out: PTP1B Inhib PTP1B. % Inhib; for PTP1B Inhib PTP1B. % Inhib: Table 2
T2 construct: human PTP1B (amino acid residues 1-321); made in house; host or cells: E. coli BL21(DE3)
T2 sequence (P18031 1-321): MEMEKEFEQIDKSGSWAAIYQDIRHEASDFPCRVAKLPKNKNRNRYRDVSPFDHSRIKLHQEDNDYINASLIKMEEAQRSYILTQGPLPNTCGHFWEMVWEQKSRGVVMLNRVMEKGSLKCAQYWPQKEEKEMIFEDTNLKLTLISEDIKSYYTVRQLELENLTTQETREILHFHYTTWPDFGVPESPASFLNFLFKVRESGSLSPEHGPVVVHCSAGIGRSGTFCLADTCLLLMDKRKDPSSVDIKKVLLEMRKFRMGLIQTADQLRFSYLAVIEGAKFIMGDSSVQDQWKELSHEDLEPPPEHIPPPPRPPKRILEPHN
Source text: The equivalent construct of human PTP1B (amino acid residues 1-321) (cloned from a human placental library), without the GST tag and thrombin cleavage site, was inserted into a pMB replicon and transformed into E. coli BL21(DE3), a strain containing a chromosomal copy of the gene for T7 RNA polymerase under control of a lacUV5 promoter. Expression of PTP1B was induced with isopropyl thiogalactose and the soluble protein was purified by ion exchange, hydrophobic interaction and gel exclusion chromatography for use in the assay to identify PTP inhibitors.
PTP1 activity is measured using either p-nitrophenol phosphate (pNPP) or a triphosphopeptide (that matches residues 1142 through 1153 of the β-subunit and the insulin receptor) as substrate in a 96-well microtiter plate format. An assay pH of 7.2 is used for standard assays (measured 405=9800 at pH 7.2).
Human PTP1B, which is highly homologous to rat PTP1, was assayed exactly as described above for PTP1.
Standard assays are conducted at room temperature in a total volume of 0.2 ml that contains Hepes buffer (50 mM, pH 7.2), NaCl (50 mM), EDTA (1 mM), DTT (1 mM), bovine serum albumin (1 mg/ml), pNPP (1 mM) and PTP1 (35 ng/ml). Compounds (2 μl of 10 mM solutions) are pipetted into wells of microtiter plates followed by 198 μl of premixed reaction mix (with PTP1 and pNPP added immediately before use). The rate of change in A405 is recorded for 60 min. Two wells on each plate contain DMSO controls and two wells contain sodium orthovanadate (1 mM) which inhibits PTP1-catalyzed hydrolysis of pNPP completely. Data are expressed as percent inhibition relative to the average of the DMSO controls measured on the same microtiter plate.

Row | SMILES | inhibition at 1 µM (rat PTP1) [%] | inhibition at 10 µM (rat PTP1) [%] | inhibition at 100 µM (rat PTP1) [%] | melting point [°C] | Ki (rat PTP1) [µM] | other results
1 | CCCCCNC(=O)C(Cc1ccc(OC(COO)COO)cc1)NC(=O)C(Cc1ccc(C(=O)c2ccccc2)cc1)NC(=O)OC(C)(C)C (stereo not shown) | 10 | 44 | 91 | – | – | inhibition at 1 µM (human PTP1B): 9%; inhibition at 10 µM (human PTP1B; Conc 10 uM): 42%; inhibition at 100 µM (human PTP1B; Conc 100 uM): 90%
2 | CCCCCNC(=O)C(Cc1ccc(OC(COO)C(=O)O)cc1)NC(=O)NC(Cc1ccc(OCc2ccccc2)cc1)C(=O)O (stereo not shown) | 8 | 55 | 96 | – | – | inhibition at 1 µM (human PTP1B): 14%; inhibition at 10 µM (human PTP1B; Conc 10 uM): 63%; inhibition at 100 µM (human PTP1B; Conc 100 uM): 97%
3 | CC(C)(C)OC(=O)N[C@@H](Cc1ccccc1)C(=O)N[C@H](CO)Cc1ccc(OCC(=O)O)c(C(=O)O)c1 [Example 138, 5-[(2S)-2-({(2S)-2-[(tert-butoxycarbonyl)amino]-3-phenylpropanoyl}amino)-3-hydroxypropyl]-2-(carboxymethoxy)benzoic Acid] | – | – | – | 168.8 to 172.3 | – | –
4 | CCCCCNC(=O)[C@H](Cc1ccc(OCC(=O)O)c(C(=O)O)c1)NC(=O)[C@@H](Cc1ccccc1)N1CCCC1=O [Example 143, 2-(carboxymethoxy)-5-[(2S)-3-oxo-2-{[(2R)-2-(2-oxo-1-pyrrolidinyl)-3-phenylpropanoyl]amino}-3-(pentylamino)propyl]benzoic Acid] | – | – | – | 96 to 97 | – | –
5 | O=C(O)COc1ccc(C[C@H](NC(=O)c2ccccc2)C(=O)NCCCCc2ccccc2)cc1-c1nn[nH]n1 [Example 146, 2-[4-{(2S)-2-(benzoylamino)-3-oxo-3-[(4-phenylbutyl)amino]-propyl}-2-(2H-1,2,3,4-tetrazol-5-yl)phenoxy]acetic Acid] | – | – | – | 223 to 225 | 20 | –
6 | O=C(O)COc1ccc(C[C@H](NC(=O)c2ccoc2)C(=O)NCCCCc2ccccc2)cc1-c1nn[nH]n1 [Example 147, 2-[4-{(2S)-2-(3-furoylamino)-3-oxo-3-[(4-phenylbutyl)amino]-propyl}-2-(2H-1,2,3,4-tetrazol-5-yl)phenoxy]acetic Acid] | – | – | – | 230 to 233 | 46 | –
7 | CCCCCNC(=O)[C@@H](Cc1ccc(OCC(=O)O)c(C(=O)O)c1)NC(=O)Cc1ccccc1OC [Example 153, 2-(carboxymethoxy)-5-[(2R)-2-{[2-(2-methoxyphenyl)acetyl]amino}-3-oxo-3-(pentylamino)propyl]benzoic Acid] | – | – | – | 146 to 148 | 30 | –
8 | CCCCCNC(=O)C(Cc1ccc(OCCOO)c(COO)c1)NC(=O)C(Cc1ccccc1)NC(=O)OC(C)(C)C (stereo not shown) [drawing 162] | 40 | 84 | 97 | – | – | PTP1B Inhib PTP1B. % Inhib (human PTP1B; Conc 10 uM): 78% and 54% and 43%; PTP1B Inhib PTP1B. % Inhib (human PTP1B; Conc 100 uM): 97% and 89% and 87%
